The results in this text go back to paper PMC6718988, “Bioactivity and Bactericidal Mechanism of Histidine-Rich β-Hairpin Peptide Against Gram-Negative Bacteria” (International Journal of Molecular Sciences, 2019).

Values after ≈ are worked out from the molar mass of the structure shown. Like-named read-outs stand apart in the source and are kept apart here. Where a SMILES comes first, the peptide text is derived from it. [ ]: non-standard residue; d: D form.

The test system of data set [1] is human red blood cells (hRBCs). Briefly: Hemolytic activity. Conditions: 1 h, OD 570 nm; for hemolysis rate: at the highest concentration (128 μM), 1% hRBC in PBS, 37 °C, 0.1% Triton X-100 positive control; for MHC, minimum hemolytic concentration: concentration causing 5% hemolysis of hRBC, 1% hRBC in PBS pH 7.4, 37 °C, repeated three times.
Description: Briefly, collected human red blood cells (hRBCs) were washed three times with PBS (pH 7.4) and diluted to 1% in PBS. Next, equal volumes of blood cells were mixed with different peptide concentrations in 96-well plates followed by incubated at 37 °C for 1 h. The mixtures were centrifuged (1000 g, 5 min), and the supernatants were transferred to 96-well plates to measure the optical density (OD) at 570 nm. Untreated blood cells were used as negative controls, and 0.1% Triton X-100-treated blood cells were used as positive controls. The minimum peptide concentration corresponding to 5% hemolytic activity was defined as the minimal hemolytic concentration (MHC). These assays were independently repeated three times.
The subject of the next data set is E. coli UB1005. In words: microbe, parasite or virus in culture. The protocol: (§1) The minimum inhibitory concentration (MIC) was measured using a broth microdilution method to determine the in vitro antimicrobial activity of the peptides. Bacteria were inoculated into MHB and incubated overnight at 37 °C until the bacteria were in log phase growth. Next, we corrected the bacterial concentration to approximately 1 × 10^5 CFU/mL using MHB. The peptides were added to 96-well plates containing 0.01% acetic acid and 0.2% bovine serum albumin at final concentrations ranging from 0.25 to 128 μM. After incubation at 37 °C for 24 h, the absorbance was measured at 492 nm using a microplate reader (Tecan GENios F129004, Tecan, Austria). Broth containing microbes and […] were used as positive and negative controls, respectively. The lowest peptide concentration with no increase in absorbance compared to that of the negative control was defined as the MIC. The experiments were independently performed three times.

A further data set deals with S. pullorum C7913. In words: microbe, parasite or virus in culture. The protocol: as §1
For another data set, the system named is E. coli K99. In words: microbe, parasite or virus in culture. The settings on record: E. coli K99; MHB, about 1 × 10^5 CFU/mL, 37 °C, 24 h; three independent experiments. The protocol: as §1
Data set [2] deals with E. coli ATCC25922. In words: microbe, parasite or virus in culture. The protocol: as §1
The next data set concerns S. epidermidis ATCC12228. Briefly: microbe, parasite or virus in culture. Conditions: S.epidermidis 12228; MHB, about 1 × 10^5 CFU/mL, 37 °C, 24 h; three independent experiments. The protocol: as §1
The test system of data set [3] is methicillin-resistant S. aureus ATCC43300. Briefly: microbe, parasite or virus in culture. Conditions: S.aureus 43300 (methicillin-resistant); MHB, about 1 × 10^5 CFU/mL, 37 °C, 24 h; three independent experiments. The protocol:
as §1

The test system of another data set is P. aeruginosa ATCC27853. In words: microbe, parasite or virus in culture. The settings on record: P. auruginosa 27853; MHB, about 1 × 10^5 CFU/mL, 37 °C, 24 h; three independent experiments. The protocol:
as §1

A further data set deals with S. aureus ATCC29213. Briefly: microbe, parasite or virus in culture. The settings on record: S.aureus 29213; MHB, about 1 × 10^5 CFU/mL, 37 °C, 24 h; three independent experiments. The protocol: as §1
For a further data set, the system named is E. coli K88. In words: microbe, parasite or virus in culture. The settings on record: E. coli K88; MHB, about 1 × 10^5 CFU/mL, 37 °C, 24 h; three independent experiments. The protocol:
as §1

Data set [4] is described as follows: LPS binding assay (BODIPY-TR-cadaverine displacement). The arrangement: species or system E. coli. Conditions: peptide concentration higher than 4 μM; 50 μg/mL LPS, 5 μg/mL BODIPY-TR cadaverine, Tris 50 mM pH 7.4; 100% = 10 μg/mL polymyxin B. The protocol:
The abilities of the antimicrobial peptides to bind LPS were determined using the fluorescent dye BODIPY-TR-cadaverine (BC) substitution method. LPS (50 μg/mL) from E. coli O111:B4 was incubated with BC (5 μg/mL) in Tris buffer (50 mm, pH 7.4) for 4 h. Next, 50 μL of various concentrations of peptides (final concentration of 1–64 μM) and 50 μL of LPS-BC mixture were added to 96-well plates, and the fluorescence was measured using a fluorescence spectrophotometer (Infinite 200 pro, Tecan, China) at an excitation wavelength of 580 nm and an emission wavelength of 620 nm. Each test was performed three times. The values were converted to %∆F (AU) using the following equation:%ΔF (AU) = [(Fobs − F0)/(F100 − F0)] × 100 where Fobs is the fluorescence value measured in the presence of the peptide, F0 is the initial fluorescence of LPS with BC without the addition of peptides, F100 is the fluorescence value produced by adding 10 μg/mL polymyxin B.

The subject of a further data set is Gram-negative bacteria. Briefly: MICs against Gram-negative strains (geometric mean, range). The settings on record: Gram-negative strains; 256 μM used where no activity at 128 μM. Type of data set: cell-based. The protocol:
as §1

A short description of data set [5]: RP-HPLC retention time as measure of hydrophobicity. Type of data set: physicochemical. The settings on record: analytical Kromasil C18 column 4.6 mm × 250 mm, 5.0 μm, acetonitrile, flow 1.0 mL/min, used as measure of hydrophobicity. The protocol: The hydrophobicities of the peptides in solution were reliably mirrored by their high-performance liquid chromatography (HPLC)retention times. The retention times for peptide HI2, HW2, HV2, HF2, and PG-1 were 11.13, 10.55, 12.20, 18.06 and 12.56 min, respectively, indicating the following hydrophobic order: HF2 > PG-1 > HV2 > HI2 > HW2(Table 1).
The designed peptides were synthesized and purified by GL Biochem (Shanghai, China). Acetonitrile was used on an analytical Kromasil C18 column (4.6 mm × 250 mm, 5.0 μm, LC 3000, Beijing, China), and the purity of the peptides was determined to be greater than 95% via reversed-phase high-performance liquid chromatography (RP-HPLC) with a flow rate of 1.0 mL/min. The experimental molecular weights of the peptides were evaluated via ESI-MS analysis, and these values were very close to the calculated masses. Next, the peptides were dissolved in deionized water at a concentration of 2.56 mM, and the peptide solutions were stored at −20 °C.

For data set [6], the system named is Gram-positive and Gram-negative bacteria. The protocol:
as §1

For a further data set, the system named is Gram-positive bacteria. The protocol:
as §1

In data set [7] the test system is E. coli ATCC25922. In words: SEM characterization of cell morphology. Type of data set: cell-based. The settings on record: E. coli ATCC25922, 1 × MIC (HV2 8 μM, PG-1 4 μM), 1 h. The protocol: For the SEM sample preparation, E. coli ATCC25922 cells were cultured at 37 °C to mid-log phase in MH broth with constant shaking at 220 rpm, centrifuged at 1000 g and then adjusted to an OD600 of 0.1–0.2 in PBS. […] Bacteria incubated with PBS served as controls. After the incubation, the mixture was centrifuged at 5000 g for 5 min, and the collected bacteria were washed three times with PBS. Approximately 2.5% (w/v) glutaraldehyde was added for fixation at 4 °C overnight, followed by washing three times with PBS. The samples were dehydrated with 50%, 70%, 90%, 100% ethanol for 10 min. A mixture of ethanol and tert-butanol was added to the dried bacterial cells for 30 min, and then t-butanol was added for 1 h. Finally, the samples were dehydrated and coated with liquid CO2 in a critical point dryer and then observed using a Hitachi S-4800 SEM (Hitachi, Tokyo, Japan).

Data set [8] concerns E. coli ATCC25922. In words: Salt sensitivity assay (MIC in presence of physiological salts). Type of data set: cell-based. The arrangement: unit not given here. The protocol: Bacteria were inoculated into MHB and incubated overnight at 37 °C until the bacteria were in log phase growth. Next, we corrected the bacterial concentration to approximately 1 × 10^5 CFU/mL using MHB. […] After incubation at 37 °C for 24 h, the absorbance was measured at 492 nm using a microplate reader (Tecan GENios F129004, Tecan, Austria). Broth containing microbes and […] were used as positive and negative controls, respectively. The lowest peptide concentration with no increase in absorbance compared to that of the negative control was defined as the MIC. The experiments were independently performed three times. The effects of salt ions on the antibacterial activities of the antimicrobial peptides were evaluated. Different salt ion concentrations were added to BSA peptide dilutions, and the next steps followed the MIC measurement method. […] These tests were independently repeated three times.

In data set [9] the test system is E. coli ATCC25922. Briefly: Swimming motility assay. The data set is classed as cell-based. Conditions: E. coli ATCC25922, 0.3% agar, 1–8 μM peptide, 37 °C, 20 h; versus untreated control. The protocol: The cell motility assay was performed on LB medium containing 0.3% agar. The peptides were added to 10 mL of medium at final concentrations of 1–8 μM. After mixing well, the mixtures were poured into 6-well plates and dried for 2 h. Subsequently, an overnight culture of E. coli ATCC 25922 was inoculated in the center of the movement plate. After incubation at 37 °C for 20 h, images were taken using a FluoroChemQ system (Cell biosciences, San Jose, CA, USA). The experiment was independently repeated three times.

Take `CC[C@H](C)[C@H](NC(=O)CNC(=O)[C@H]1CCCN1C(=O)[C@@H](NC(=O)[C@H](Cc1c[nH]cn1)NC(=O)[C@@H](NC(=O)[C@H](Cc1c[nH]cn1)NC(=O)[C@@H](NC(=O)[C@H](CCCNC(=N)N)NC(=O)[C@@H](N)CCCNC(=N)N)[C@@H](C)CC)[C@@H](C)CC)[C@@H](C)CC)C(=O)N[C@@H](Cc1c[nH]cn1)C(=O)N[C@H](C(=O)N[C@@H](Cc1c[nH]cn1)C(=O)N[C@H](C(=O)N[C@@H](CCCNC(=N)N)C(=O)N[C@@H](CCCNC(=N)N)C(N)=O)[C@@H](C)CC)[C@@H](C)CC` [HI2] (H-RRIHIHI[dP]GIHIHIRR-NH2; N-terminus assumed): the hemolysis rate in [1] came out at 3.4%. Also, the “MHC, minimum hemolytic concentration” value in data set [1] is on record as above 128 µM. Also, the MIC in the data set on E. coli UB1005 (UB1005, 24 h) is 16 µM (≈ 32.4 µg/mL); against S. pullorum C7913 (C7913, 24 h) it was 16 µM (≈ 32.4 µg/mL); in the data set with E. coli K99 it was above 128 µM; with E. coli ATCC25922 [2] (ATCC25922, 24 h), 32 µM (≈ 64.8 µg/mL); against S. epidermidis ATCC12228, above 128 µM; in data set [3], above 128 µM. The MIC in the data set on P. aeruginosa ATCC27853 was above 128 µM; against S. aureus ATCC29213, above 128 µM; with E. coli K88, 32 µM (≈ 64.8 µg/mL). In addition, the “LPS binding ability relative to binding activity of polymyxin B” value in [4] is reported as “higher than 60%”. In addition, in the data set on Gram-negative bacteria, the “MBC (GM), geometric mean of MICs, Gram (−)” value was found to be 50.80 µM. For the same compound, the “Retention Time” value in [5] is 11.13 min. For the same compound, the “MBC (GM), geometric mean of MICs, Gram (+,−)” value in [6] (24 h) came to 87.09 µM. Further, the “MBC (GM), geometric mean of MICs, Gram (+)” value against Gram-positive bacteria (24 h) amounted to 256 µM.

As to “RGGRLCYCRRFCVCVGR-NH2 [PG-1, Protegrin-1, reference compound]”, in the data set with E. coli ATCC25922 [7], the “cell morphology by SEM” value was “rough and wrinkled”. Also, the “MIC, FeCl3” value in the data set on E. coli ATCC25922 [8] (E. coli ATCC25922, 4 μM FeCl3, unit not given) came to 4. In the data set with E. coli ATCC25922 [8] (E. coli ATCC25922, 6 μM NH4Cl, unit not given), the “MIC, NH4Cl” value was found to be 4. Besides, the “MIC, ZnCl2” value in the data set on E. coli ATCC25922 [8] (E. coli ATCC25922, 8 μM ZnCl2, unit not given) is recorded as 2. Further, in the data set with E. coli ATCC25922 [8] (E. coli ATCC25922, 1 mM MgCl2, unit not given), the “MIC, MgCl2” value turned out to be 4. Also, in the data set with E. coli ATCC25922 [8] (E. coli ATCC25922, 4.5 mM KCl, unit not given), the “MIC, KCl” value is reported as 4. For the same compound, the “MIC, NaCl” value in the data set with E. coli ATCC25922 [8] (E. coli ATCC25922, 150 mM NaCl, unit not given) came to 4. Also, the “MIC, Control” value with E. coli ATCC25922 [8] (E. coli ATCC25922, absence of physiological salts, no unit printed in Table 3 (Table 2 MIC in μM)) is given as 4. In addition, in data set [1], the hemolysis rate came out at 48.13%. For the same compound, the “MHC, minimum hemolytic concentration” value in data set [1] came to 4 µM. Besides, the “swimming motility (diameter of swimming bacteria)” value in the data set with E. coli ATCC25922 [9] is given as “significantly reduced the diameter of the swimming bacteria”. In addition, the MIC turned out to be 2 µM in the data set with E. coli UB1005 (E. coli UB1005, MHB, about 1 × 10^5 CFU/mL, 37 °C, 24 h, three independent experiments); 4 µM in the data set on S. pullorum C7913 (S.pullorum C7913, MHB, about 1 × 10^5 CFU/mL, 37 °C, 24 h, three independent experiments); 2 µM against E. coli K99; 4 µM with E. coli ATCC25922 [2] (E. coli 25922, MHB, about 1 × 10^5 CFU/mL, 37 °C, 24 h, 0.25-128 μM, three independent experiments); 8 µM in the data set with S. epidermidis ATCC12228; 8 µM in [3]. In addition, the MIC against P. aeruginosa ATCC27853 worked out at 8 µM; with S. aureus ATCC29213, 2 µM; against E. coli K88 it was 2 µM. For the same compound, the “MBC (GM), geometric mean of MICs, Gram (−)” value against Gram-negative bacteria was found to be 3.17 µM. Besides, in [5], the “Retention Time” value was found to be 12.56 min. For the same compound, in data set [6] (all strains, 256 μM used where no activity at 128 μM), the “MBC (GM), geometric mean of MICs, Gram (+,−)” value worked out at 3.70 µM. The “MBC (GM), geometric mean of MICs, Gram (+)” value in the data set with Gram-positive bacteria (Gram-positive strains, 256 μM used where no activity at 128 μM) turned out to be 5.04 µM.
